Results on twelve molecules are retold here after patent publication US4631289A, “Useful in radiotherapy of chemotherapy 4-aziridino-1-nitroimidazol-1-yl-2,3-butanediols” (National Research Development Corporation, priority 1982, dated 1986).

In series [1] the test system is irradiated hypoxic V79 mammalian cells. The series can be described thus: Sensitisation: concentration for enhancement ratio of 1.6 in irradiated hypoxic V79 cells. The settings on record: Cricetulus griseus, read-out: C1.6 (concentration required to achieve an enhancement ratio of 1.6). It counts as cell-based. From the text:
^a Concentration required to achieve an enhancement ratio of 1.6 in
irradiated hypoxic V79 mammalian cells.

Series [2] in a line: Toxicity, LD50, i.p. in female WHT mice. The settings on record: mouse, in vivo, ip. From the text:
(§1) ^b Drugs administered i.p. to .female. WHT mice.

Series [3] has as its system MT tumour. The series can be described thus: Chemosensitization (melphalan): enhancement of melphalan treatment in WHT mice bearing MT tumour (Example 3). The conditions noted are these: i.p. before melphalan. The class given is in vivo. On the procedure:
(§2) In the following Examples, WHT mice in which the MT tumour has been implanted subcutaneously are administered the compound of Example 1 intraperitoneally before treatment with radiation or with the chemotherapeutic agent melphalan. The time before such treatment at which the drug is administered is such that maximum enhancement is effected. The results of treatment with radiation and the chemotherapeutic drug are set out respectively in Tables I and II together with comparison results using misonidazole (MISO) and the compound Ro-03-8799. The asterisks against the results from treatment with the latter compounds indicate that the tumours treated in these cases are intramuscular.

Series [4] relates to MT tumour. Put plainly: Radiosensitization: enhancement of radiation treatment in WHT mice bearing MT tumour (Example 2). It counts as in vivo. The settings on record: administered dose 3.8 mmoles/kg, intraperitoneal, before radiation; tumour implanted subcutaneously. As to the method: as §2
Series [5] is described as follows: Toxicity, LD50, i.p. in male CRCD1 mice. The conditions noted are these: mouse, in vivo, ip, male CRCD1 mice (footnote c).
From the text: as §1
^c For Compound of Example 1 in .male. CRCD1 mice

Where [6] appears, read: administered dose 0.72 mmoles/kg, * tumours intramuscular.

Structures are written as SMILES. Read-outs that look alike come from different tables or passages of the source.

What is called LD50 is the dose expected to kill half of the subjects tested. Turning to `CC(C)C1CN1CC(O)Cn1ccnc1[N+](=O)[O-]` (stereo not shown) [Example 9, 1-(2-Nitro-1-imidazolyl)-3-(2-isopropyl-1-aziridino)-2-propanol], in series [1] (V79, light or radiation study), the EC (enhancement ratio 1.6) turned out to be 130 µM. This molecule also gave a median lethal dose (LD50) in series [2] not above 1180 µmol/kg.
As for `C[C@@H]1[C@@H](C)N1CC(O)Cn1ccnc1[N+](=O)[O-]` (relative stereo) [Example 14, 1-(2-Nitro-1-imidazolyl)-3-(2,3-dimethyl-1-aziridino)-2-propanol], in series [1] (V79, light or radiation study), the EC (enhancement ratio 1.6) was found to be 80 µM.
Take `C[C@@H]1[C@H](C)N1CC(O)Cn1ccnc1[N+](=O)[O-]` (relative stereo) [Example 13, 1-(2-Nitro-1-imidazolyl)-3-(2,3-dimethyl-1-aziridino)-2-propanol]: the EC (enhancement ratio 1.6) in series [1] (V79, light or radiation study) stood at 80 µM. The molecule also had an LD50 in series [2] not above 1250 µmol/kg.
Taken in the same sequence, the figures for `Cc1ncc([N+](=O)[O-])n1CC(O)CN1CC1` (stereo not shown) [Example 11, 1-(2-methyl-5-nitro-1-imidazolyl)-3-(1-aziridino or substitutedaziridino)-2-propanol] were 300 µM and 800 µmol/kg.
Regarding `O=[N+]([O-])c1nccn1CC(O)CN1CC1` (stereo not shown) [Example 1, 1-(2-Nitro-1-imidazolyl)-3-(1-aziridino)-2-propanol], the EC (enhancement ratio 1.6) in series [1] (light or radiation study, irradiated hypoxic V79 mammalian cells) came out at 100 µM. The “Enhancement ratio (Chemosensitization, melphalan)” value in the series with MT tumour [3] (administered dose 0.08 mmoles/kg, tumour implanted subcutaneously) was found to be 3.0. Moreover, the “Enhancement ratio (Radiosensitization)” value with MT tumour [4] was found to be 1.7. The molecule also showed a median lethal dose (LD50) in series [5] of 610 µmol/kg.
Consider `O=[N+]([O-])c1nccn1CC(O)CN1CCCCC1` (stereo not shown) [Example 8799], for which the “Enhancement ratio (Chemosensitization, melphalan)” value with MT tumour [3] (setting [6]) stood at 2.2; in the series on MT tumour [3] (administered dose 0.72 mmoles/kg, tumour implanted subcutaneously), 1.9. Also, in the series with MT tumour [4], the “Enhancement ratio (Radiosensitization)” value is reported as 1.3.
For `O=[N+]([O-])c1nccn1CC(O)C(O)CN1CC1` (stereo not shown) [Example 10, 1-(2-Nitro-1-imidazolyl)-4-(1-aziridino) or substituted aziridino)-2,3-butane-diol], the EC (enhancement ratio 1.6) in series [1] (V79, light or radiation study) came out at 130 µM. The molecule also displayed an LD50 in series [2] of 410 µmol/kg.
Consider `COCC(O)Cn1ccnc1[N+](=O)[O-]` (stereo not shown) [MISO, misonidazole], for which the “Enhancement ratio (Chemosensitization, melphalan)” value in the series on MT tumour [3] (setting [6]) was 1.7. The “Enhancement ratio (Radiosensitization)” value with MT tumour [4] worked out at 1.3.
As to `O=[N+]([O-])c1nccn1CC(O)CN1CC1c1ccccc1` (stereo not shown) [Example 8, 1-(2-Nitro-1-imidazolyl)-3-(2-phenyl-1-aziridino)-2-propanol], the EC (enhancement ratio 1.6) in series [1] (V79, light or radiation study) came out at 300 µM.
As to `CCC1CN1CC(O)Cn1ccnc1[N+](=O)[O-]` (stereo not shown) [Example 5, 1-(2-Nitro-1-imidazolyl)-3-(2-ethyl-1-aziridino)-2-propanol], the EC (enhancement ratio 1.6) in series [1] (V79, light or radiation study) was 130 µM. This molecule also showed a median lethal dose (LD50) in series [2] of 580 µmol/kg.
The matching figures for `CC1(C)CN1CC(O)Cn1ccnc1[N+](=O)[O-]` (stereo not shown) [Example 7, 1-(2-Nitro-1-imidazolyl)-3-(2,2-dimethyl-1-aziridino)-2-propanol]: 80 µM and 1250 µmol/kg.
In the case of `CC1CN1CC(O)Cn1ccnc1[N+](=O)[O-]` (stereo not shown) [Example 4, 1-(2-Nitro-1-imidazolyl)-3-(2-methyl-1-aziridino)-2-propanol], in series [1] (V79, light or radiation study), the EC (enhancement ratio 1.6) came out at 80 µM. For the same molecule, in series [2], the 50% lethal dose (LD50) is less than 580 µmol/kg.
